A short description of series [1]: Solubility assessment (UHPLC-UV of supernatant, target 10 mg/ml). Format: physicochemical. As to conditions: read-out: Soluble amount. The method in brief: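 Peptides at 10 mg/ml (purity-corrected) in 100 mM phosphate pH 7.4, optionally with 2.7 mg/ml m-cresol; gentle agitation 1 h, then 5° C. overnight (24 h). Supernatant after 15 min centrifugation at 2500 RCF quantified by UHPLC-UV, with sequence-based extinction coefficients.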

The target in series [2] is human GLP-1 receptor (hGLP-1R) (Homo sapiens, UniProt P43220). In words: In vitro cellular cAMP assay for GLP-1 receptor efficacy (HEK-293 cell line over-expressing receptor). Format: cell-based. The settings on record: HEK-293, 0.1% BSA.
Sequence of human GLP-1 receptor (hGLP-1R) (P43220 24-463): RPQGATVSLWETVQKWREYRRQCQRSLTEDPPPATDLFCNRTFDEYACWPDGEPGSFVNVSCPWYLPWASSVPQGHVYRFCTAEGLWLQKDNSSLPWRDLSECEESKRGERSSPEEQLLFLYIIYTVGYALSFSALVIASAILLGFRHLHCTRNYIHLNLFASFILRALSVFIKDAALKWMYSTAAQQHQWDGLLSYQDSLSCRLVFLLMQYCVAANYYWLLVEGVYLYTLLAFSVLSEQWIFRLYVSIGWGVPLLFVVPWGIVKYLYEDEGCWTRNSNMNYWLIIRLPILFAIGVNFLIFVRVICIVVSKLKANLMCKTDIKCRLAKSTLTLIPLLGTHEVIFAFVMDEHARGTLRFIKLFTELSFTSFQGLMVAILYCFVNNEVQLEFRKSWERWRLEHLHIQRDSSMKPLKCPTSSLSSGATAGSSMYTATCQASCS
A short description of series [3]: Chemical stability assessment (UHPLC-UV purity loss on storage in solution). It counts as physicochemical. As to conditions: Chemical stability buffer system A: 20 mM phosphate buffer pH 7.4; ~300 μM. The essentials:
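Peptides dissolved at ~300 μM (purity-corrected) in 20 mM phosphate pH 7.4, or 8 mM phosphate pH 7.4 with 14 mg/ml propylene glycol and 5.5 mg/ml phenol; filtered, stored 28 days at 5 and 40 °C. Supernatant analysed by UHPLC-UV; stability expressed as relative purity loss.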

The target in series [4] is T1, human GIP receptor (hGIPR) (Homo sapiens, UniProt P48546).
T1 sequence (P48546 22-466): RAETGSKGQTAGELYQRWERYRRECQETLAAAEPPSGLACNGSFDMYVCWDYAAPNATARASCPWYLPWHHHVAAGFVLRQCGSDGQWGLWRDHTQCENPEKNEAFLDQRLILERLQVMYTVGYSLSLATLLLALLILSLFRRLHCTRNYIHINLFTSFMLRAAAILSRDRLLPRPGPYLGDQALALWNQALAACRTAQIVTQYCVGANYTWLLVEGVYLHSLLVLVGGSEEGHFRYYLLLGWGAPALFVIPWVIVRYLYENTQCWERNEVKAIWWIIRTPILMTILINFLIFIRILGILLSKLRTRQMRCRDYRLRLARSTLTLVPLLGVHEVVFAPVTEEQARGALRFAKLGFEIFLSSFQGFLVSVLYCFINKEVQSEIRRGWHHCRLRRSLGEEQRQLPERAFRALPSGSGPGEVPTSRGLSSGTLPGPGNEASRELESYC
In words: In vitro cellular cAMP assay for GIP receptor efficacy (HEK-293 cell line over-expressing receptor). Format: cell-based.

Setting [5] is: 100 mM phosphate buffer pH 7.4 (solubility buffer system A), pH 7.4, Solubility buffer system A: 100 mM phosphate buffer pH 7.4.
The mark [6] stands for this setting: pH 7.4, Solubility buffer system C: 100 mM phosphate buffer pH 7.4, 2.7 mg/ml m-cresol.
The mark [7] stands for this setting: EC50 hGIPR 0.1% BSA, HEK-293, 0.1% BSA.

Structures are written as SMILES. ≈ marks a conversion by molar mass, not a printed value. Read-outs that look alike come from different tables or passages of the source.

Usually EC50 stands for the concentration needed to bring the measured effect to its halfway point. A higher EC50 goes with lower potency in that assay. For the molecule `CC[C@H](C)[C@H](NC(=O)[C@H](Cc1ccccc1)NC(=O)[C@H](CCC(=O)O)NC(=O)[C@H](CCC(=O)O)NC(=O)[C@H](CCC(N)=O)NC(=O)[C@H](Cc1c[nH]cn1)NC(=O)[C@@H](NC(=O)[C@H](CCCNC(=N)N)NC(=O)[C@H](CC(=O)O)NC(=O)[C@H](CCCCNC(=O)COCCOCCNC(=O)COCCOCCNC(=O)CC[C@H](NC(=O)CCCCCCCCCCCCCCCCC(=O)O)C(=O)O)NC(=O)C(C)(C)NC(=O)[C@@H](NC(=O)[C@H](CO)NC(=O)[C@H](CC(C)C)NC(=O)[C@H](CC(=O)O)NC(=O)[C@H](CO)NC(=O)[C@@H](NC(=O)[C@H](Cc1ccccc1)NC(=O)[C@@H](NC(=O)CNC(=O)[C@H](CCC(=O)O)NC(=O)C(C)(C)NC(=O)[C@@H](N)Cc1ccc(O)cc1)[C@@H](C)O)[C@@H](C)CC)[C@@H](C)CC)[C@@H](C)CC)C(=O)N[C@@H](CCC(=O)O)C(=O)N[C@@H](Cc1c[nH]c2ccccc12)C(=O)N[C@@H](CC(C)C)C(=O)N[C@@H](CC(C)C)C(=O)N[C@@H](C)C(=O)N[C@@H](CCC(N)=O)C(=O)N[C@@H](CCCNC(=N)N)C(=O)NCC(N)=O` [SEQ ID NO: 4, H2N-Y-Aib-E-G-T-F-I-S-D-L-S-I-Aib-K[{AEEA}2-gGlu-C18OH]-D-R-I-H-Q-E-E-F-I-E-W-L-L-A-Q-R-G-NH2], the solubility at 24 h in series [1] (setting [5]) is over 30000 µg/mL; in series [1] (setting [6]), over 8700 µg/mL. For the same molecule, the EC50 in series [2] is over 1 nM; in series [4] (setting [7]), 0.0208 nM. In addition, the “Relative purity loss over 28 days at 40° C.” value in series [3] is listed as 5.1%.

Consider `CC[C@H](C)[C@H](NC(=O)[C@H](CCCNC(=N)N)NC(=O)[C@H](CC(=O)O)NC(=O)[C@H](CCCCNC(=O)COCCOCCNC(=O)COCCOCCNC(=O)CC[C@H](NC(=O)CCCCCCCCCCCCCCCCC(=O)O)C(=O)O)NC(=O)C(C)(C)NC(=O)[C@@H](NC(=O)[C@H](CO)NC(=O)[C@H](CC(C)C)NC(=O)[C@H](CC(=O)O)NC(=O)[C@H](CO)NC(=O)[C@@H](NC(=O)[C@H](Cc1ccccc1)NC(=O)[C@@H](NC(=O)CNC(=O)[C@H](CCC(=O)O)NC(=O)C(C)(C)NC(=O)[C@@H](N)Cc1ccc(O)cc1)[C@@H](C)O)[C@@H](C)CC)[C@@H](C)CC)C(=O)N[C@@H](Cc1c[nH]cn1)C(=O)N[C@@H](CCC(N)=O)C(=O)NC(C)(C)C(=O)N[C@@H](CCC(=O)O)C(=O)N[C@@H](Cc1ccccc1)C(=O)N[C@H](C(=O)N[C@@H](CCC(=O)O)C(=O)N[C@@H](Cc1c[nH]c2ccccc12)C(=O)N[C@@H](CC(C)C)C(=O)N[C@@H](CC(C)C)C(=O)N[C@@H](C)C(=O)N[C@@H](CCC(N)=O)C(=O)N[C@@H](CCC(=O)O)C(=O)NCC(N)=O)[C@@H](C)CC` [SEQ ID NO: 12, H2N-Y-Aib-E-G-T-F-I-S-D-L-S-I-Aib-K[{AEEA}2-gGlu-C18OH]-D-R-I-H-Q-Aib-E-F-I-E-W-L-L-A-Q-E-G-NH2], for which the solubility at 24 h was over 9500 µg/mL in series [1] (setting [5]) and 7600 µg/mL (≈ 1760 µM) in series [1] (setting [6]). Moreover, the concentration for a half-maximal effect (EC50) in series [2] was over 10 nM; in series [4] (setting [7]) it was 0.0267 nM; in series [4] (EC50 hGIPR 0.1% HSA, HEK-293, 0.1% HSA), 0.0011 nM. Also, the “Relative purity loss over 28 days at 40° C.” value in series [3] came out at 7.4%.

Source of the values: patent publication US20240360194A1, “New Peptides as Potent and Selective GIP Receptor Agonists” (Sanofi, priority 2021, published 2024).
